Experiment in all cases: DTP human tumour cell line panel, 48 h
In test [1] the test system is OVCAR-8.
Test [2] deals with Hs-578T.
The test system of test [3] is SF-295.
Test [4] relates to ACHN.
In test [5] the test system is CAKI-1.
In test [6] the test system is KM12.
Test [7] has as its system HOP-62.
The subject of test [8] is SK-MEL-28.
Test [9] deals with IGROV-1.
Test [10] has as its system NCI-H522.
The test system of test [11] is A498.
Test [12] relates to UO-31.
The test system of test [13] is OVCAR-4.
For test [14], the system named is MDA-MB-231.
The test system of test [15] is SNB-75.
Test [16] has as its system SK-MEL-5.
Test [17] deals with K562.
The test system of test [18] is Malme-3M.
Test [19] deals with RXF 393.
For test [20], the system named is T47D.

Consider eleven compounds from ChEMBL document CHEMBL1201862, “PubChem BioAssay data set” (2004).

Each structure is given as a SMILES string.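 48-hour exposure; five concentrations; linearly interpolated endpoints. Abbreviation: GI50, concentration required for 50% inhibition of growth.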 Activity calls are given as the source filed them. Cut-off read from the data, not from the text of the source: active = GI50 up to about 1.1 µM and inactive = higher.

In the case of `CC(C)(C)OC(=O)NC(CSCc1ccc(C(=O)c2ccccc2)cc1)C(=O)O` (stereo not given), the GI50 in test [1] is > 100 µM (inactive); in test [2], 34.9 µM (inactive); in test [3], > 100 µM (inactive); in [4] it was > 100 µM (inactive); in test [5], > 100 µM (inactive); in test [6], > 100 µM (inactive). The GI50 in test [7], in test [8], in test [9], in test [10], in test [11] and in test [12] was > 100 µM (inactive) each time. The GI50 in test [13] was 88.9 µM (inactive); in test [14], > 100 µM (inactive); in test [15] it was > 100 µM (inactive); in test [16] it was > 100 µM (inactive); in test [17], > 100 µM (inactive); in test [18] it was > 100 µM (inactive). Further, the GI50 in test [19] is > 100 µM (inactive).
Take `CC(=O)Nc1ccc(COC(O)CN2CCCCC2)cc1[N+](=O)[O-]` (stereo not given): the GI50 in test [1], in [3], in [4], in [20], in test [5] and in [6] was > 100 µM (inactive) in each case. Moreover, the GI50 in [8], in [9], in test [10], in [11], in test [12] and in [13] was > 100 µM (inactive) in each case. Besides, the GI50 in [14], in test [15], in [16], in test [17], in test [18] and in [19] was > 100 µM (inactive) each time.
Consider `CC(=O)O[C@H]1CC[C@@]2(C)C(=C[C@H](c3ccc(O)cc3)[C@H]3[C@@H]4CC[C@H](OC(C)=O)[C@@]4(C)CC[C@@H]32)C1`, for which the GI50 in [1] was 16.9 µM (inactive); in test [3] it was 29 µM (inactive); in [4] it was 22.6 µM (inactive); in [5], 18.6 µM (inactive); in test [6] it was 16.6 µM (inactive); in [7] it was 19.1 µM (inactive). Besides, the GI50 in test [11] is 0.51 µM (active); in test [12], 25.2 µM (inactive); in test [13] it was 15.4 µM (inactive); in test [14] it was 17.9 µM (inactive); in [15], 24.7 µM (inactive); in test [16], 11.4 µM (inactive). For the same compound, the figures for the GI50 in test [17], in test [18] and in test [19] were 12.9 µM (inactive), 17.9 µM (inactive) and 22.5 µM (inactive), respectively.
For the compound `O=C1c2ccccc2-c2nc(-c3ccncc3)cc3c2c1nc1ccccc13`, the GI50 in test [1] is 25.2 µM (inactive); in test [3], 11.3 µM (inactive); in test [4], 8.32 µM (inactive); in [5] it was > 100 µM (inactive); in [6], 11.8 µM (inactive); in test [7], 6.55 µM (inactive). Besides, the GI50 was 32.3 µM (inactive) in test [8]; 1.07 µM (active) in test [9]; 10.7 µM (inactive) in test [10]; 9.71 µM (inactive) in test [12]; 27.3 µM (inactive) in test [13]; > 100 µM (inactive) in test [14]. The GI50 is 32.5 µM (inactive) in test [15], 16.1 µM (inactive) in [17] and 4.27 µM (inactive) in test [18].
Turning to `C=C1c2nc3ccccc3n2C=C(c2ccc(Cl)cc2)N1c1ccccc1`, the GI50 in test [1] is 9.51 µM (inactive); in test [3] it was 11.7 µM (inactive); in test [4], 12.3 µM (inactive); in test [5] it was 15.7 µM (inactive); in test [6], 12.3 µM (inactive); in test [8], 11.7 µM (inactive). The GI50 was 7.73 µM (inactive) in test [9]; 4 µM (inactive) in [10]; 37.2 µM (inactive) in test [11]; 13.4 µM (inactive) in [12]; 10.5 µM (inactive) in test [13]; 27.2 µM (inactive) in [14]. Besides, the GI50 in test [15] is 3.5 µM (inactive); in test [16], 16.1 µM (inactive); in [17] it was 40.6 µM (inactive); in [18] it was 12.1 µM (inactive); in test [19] it was 16.1 µM (inactive).
As for `CC(=O)OC1C(COC(N)=O)OC(n2c(-c3ccc(C)cc3)cc(-c3ccccc3)c(C#N)c2=O)C(OC(C)=O)C1OC(C)=O` (stereo not given), the GI50 in test [1], in test [3], in [4], in test [5], in [6] and in test [7] was > 100 µM (inactive) in each case. In addition, the GI50 is > 100 µM (inactive) in test [8]; > 100 µM (inactive) in test [9]; > 100 µM (inactive) in test [10]; > 100 µM (inactive) in test [11]; 71.9 µM (inactive) in [12]; > 100 µM (inactive) in test [13]. Besides, the GI50 in test [15] is 44 µM (inactive); in [16] it was > 100 µM (inactive); in [17] it was > 100 µM (inactive); in test [18], > 100 µM (inactive); in test [19] it was > 100 µM (inactive).
Regarding `O=[N+]([O-])/C(C(Cl)=C(Cl)Cl)=C(\N1CCCCC1)n1cncn1`, the GI50 in test [1] was 19.5 µM (inactive); in test [3], 17.1 µM (inactive); in test [4] it was 17.7 µM (inactive); in test [20] it was 14.8 µM (inactive); in [5], 10.6 µM (inactive); in test [6], 19.5 µM (inactive). The GI50 was 19.6 µM (inactive) in [7]; 16.3 µM (inactive) in test [8]; 9.08 µM (inactive) in test [9]; 15.6 µM (inactive) in test [10]; 15.8 µM (inactive) in test [11]; 15.9 µM (inactive) in test [12]. Besides, the GI50 in test [13] is 18.6 µM (inactive); in test [14], 14.8 µM (inactive); in [15] it was 23 µM (inactive); in test [16], 12.6 µM (inactive); in [17], > 46 µM (inactive); in test [18] it was 15.9 µM (inactive). Moreover, the GI50 in test [19] was 6.64 µM (inactive).
For the compound `CCCCCCNC(=O)CCN(C(=O)O)S(=O)(=O)c1ccc(NC(=O)c2ccccc2)cc1`, the GI50 in [1] is > 61.2 µM (inactive); in [3] it was > 100 µM (inactive); in [4], > 100 µM (inactive); in test [5], > 100 µM (inactive); in test [6], > 57.4 µM (inactive); in [7], > 100 µM (inactive). The GI50 in test [8] is > 100 µM (inactive); in test [9] it was > 100 µM (inactive); in test [10], > 20 µM (inactive); in test [11], > 100 µM (inactive); in test [12], > 100 µM (inactive); in [13], > 100 µM (inactive). For the same compound, the GI50 in test [15] is > 100 µM (inactive); in test [16] it was > 100 µM (inactive); in test [17] it was > 48.2 µM (inactive); in test [18] it was > 100 µM (inactive); in test [19] it was > 100 µM (inactive).
In the case of `CCOC1NC(=O)Oc2ccccc21` (stereo not given), the GI50 in [1], in [2], in [3], in test [4], in [5] and in [6] was > 100 µM (inactive) throughout. In addition, the GI50 in test [7], in test [8], in [9], in test [10], in [11] and in test [12] was > 100 µM (inactive) throughout. In addition, the GI50 in test [13], in test [14], in test [15], in test [16], in [17] and in test [18] was > 100 µM (inactive) each time. In addition, the GI50 in test [19] is > 100 µM (inactive).
On to `O=C(Cn1ccnc1[N+](=O)[O-])NCc1ccc(F)cc1`, for which the GI50 in test [1], in [3], in test [4], in [5], in test [6] and in test [7] was > 100 µM (inactive) throughout. In addition, the GI50 in test [8], in [9], in test [10], in [11], in test [12] and in test [13] was > 100 µM (inactive) throughout. Moreover, the GI50 was 68.9 µM (inactive) in [15]; > 100 µM (inactive) in test [16]; > 100 µM (inactive) in test [17]; > 100 µM (inactive) in [18]; > 100 µM (inactive) in [19].
Take `O=C(O)c1cc2cc(c1)/N=C/c1ccccc1OCc1cccc(n1)COc1ccccc1/C=N/2`: the GI50 in test [1] is > 25 µM (inactive); in [2] it was 4.94 µM (inactive); in test [3], 6.24 µM (inactive); in [4], 23.2 µM (inactive); in test [6] it was 13 µM (inactive); in test [7], > 25 µM (inactive). Besides, the GI50 is 23.3 µM (inactive) in test [8]; 20.4 µM (inactive) in test [9]; > 25 µM (inactive) in test [10]; > 25 µM (inactive) in test [11]; > 25 µM (inactive) in [12]; 12.2 µM (inactive) in [13]. Besides, the GI50 in [14] is > 25 µM (inactive); in [15] it was > 25 µM (inactive); in test [17], 10.1 µM (inactive); in [18], 3.64 µM (inactive); in test [19] it was > 25 µM (inactive).

A word on the GI50: it is the concentration at which growth is held to half of that of the control.
